Source: PubChem BioAssay (NCI)
Values joined by “and” are separate entries in the source; they are usually repeats but may differ in a detail not shown here. Equal entries are not always repeated.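 All cell lines were grown in 96-well plates and treated with compound for 48 hours. GI50 = concentration required for 50% inhibition of growth. Definition used: TGI = concentration required for complete inhibition of growth.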

Columns and labels:
Assay in all cases: NCI-60 cell line screen, 48 h
HCT-15 colon = tested on: HCT-15 colon
DMS 114 small cell lung = tested on: DMS 114 small cell lung
SF-539 CNS = tested on: SF-539 CNS
HCC-2998 colon = tested on: HCC-2998 colon
NCI-H460 lung = tested on: NCI-H460 lung
CAKI-1 renal = tested on: CAKI-1 renal
SNB-78 CNS = tested on: SNB-78 CNS
MALME-3M melanoma = tested on: MALME-3M melanoma
COLO 205 colon = tested on: COLO 205 colon
SK-OV-3 ovarian = tested on: SK-OV-3 ovarian

Row | Structure (SMILES) | TGI (HCT-15 colon) | TGI (DMS 114 small cell lung) | TGI (SF-539 CNS) | TGI (HCC-2998 colon) | TGI (NCI-H460 lung) | TGI (CAKI-1 renal) | TGI (SNB-78 CNS) | TGI (MALME-3M melanoma) | TGI (COLO 205 colon) | TGI (SK-OV-3 ovarian) | GI50 (HCT-15 colon) | GI50 (NCI-H460 lung) | GI50 (CAKI-1 renal) | GI50 (MALME-3M melanoma) | GI50 (DMS 114 small cell lung) | GI50 (SF-539 CNS) | GI50 (HCC-2998 colon) | GI50 (COLO 205 colon) | GI50 (SK-OV-3 ovarian)
1 | CCC1(CN(C)C)CC/C(=C\c2ccc(OC)c(OC)c2)C1=O (stereo unspecified) | > 100 µM | > 100 µM | > 100 µM | > 100 µM | > 100 µM | > 100 µM | > 100 µM | > 100 µM | > 100 µM | > 100 µM | – | – | – | – | – | – | – | – | –
2 | CCc1nc(N)nc(N)c1-c1ccc(Cl)c(N=[N+]=[N-])c1 | > 100 µM | – | > 39.9 µM and 65.3 µM | 23 µM and 30.8 µM | > 81.7 µM | 99.5 µM and > 96.4 µM | > 100 µM | 30.2 µM and 23.5 µM | 23.3 µM and 26.1 µM | > 100 µM | 0.791 µM and 2.06 µM | 0.463 µM and 1.23 µM | 19.3 µM and 7.29 µM | 14 µM and 6.3 µM | – | – | – | – | –
3 | O=c1c2cc3c(cc2c2cccc4c2n1CCC4)OCO3 | > 100 µM | – | > 100 µM | > 100 µM | > 100 µM | > 100 µM | > 100 µM | > 100 µM | > 100 µM | > 100 µM | – | – | – | – | – | – | – | – | –
4 | COc1cc2ccnc3c(=C(SC)SC)c(=O)c(c1OC)c23 | 29.8 µM | 36 µM | 33 µM | 32.6 µM | > 100 µM | 23.4 µM | – | 24.7 µM | 10.5 µM | > 100 µM | – | – | – | – | – | – | – | – | –
5 | O=c1cccc(-c2cccc(=O)[nH]2)[nH]1 | > 100 µM | > 100 µM | > 100 µM | > 100 µM | > 100 µM | > 100 µM | > 100 µM | > 100 µM | > 100 µM | > 100 µM | – | – | – | – | – | – | – | – | –
6 | N#Cc1cccc(C=NC23CC4CC(CC(C4)C2)C3)c1 | > 100 µM | > 100 µM | > 100 µM | > 100 µM | > 100 µM | > 100 µM | > 100 µM | > 100 µM | > 100 µM | > 100 µM | – | – | – | – | – | – | – | – | –
7 | OCCN(CCO)c1cccc(N(CCO)CCO)n1 | > 100 µM | > 100 µM | – | – | > 100 µM | > 100 µM | > 100 µM | – | > 100 µM | > 100 µM | – | – | – | – | – | – | – | – | –
8 | COc1ccc2c(c1)-c1nn(CCCN(C)C)c3ccc([N+](=O)[O-])c(c13)N2 | 2.38 µM and 13.5 µM | 4.24 µM and 13.8 µM | 3.17 µM and 7.49 µM | 1.73 µM and 12.2 µM | 1.21 µM and 3.06 µM | 4.63 µM and 6.34 µM | – | 2.9 µM and 7.68 µM | 0.913 µM and 3.75 µM | 1.86 µM and 7.69 µM | 0.142 µM and 0.541 µM | 0.103 µM and 0.27 µM | – | 0.306 µM and 0.908 µM | 0.202 µM and 0.543 µM | 0.163 µM and 0.602 µM | 0.148 µM and 0.728 µM | 0.0962 µM and 0.276 µM | 0.175 µM and 0.866 µM
9 | COc1cccc(SSc2cccc(OC)c2C(=O)O)c1C(=O)O | > 100 µM | > 100 µM | > 100 µM | – | > 100 µM | > 100 µM | > 100 µM | > 100 µM | > 100 µM | > 100 µM | – | – | – | – | – | – | – | – | –
10 | O=C(CCCN1CCC(C(O)c2ccc(F)cc2)CC1)c1ccc(F)cc1 (stereo unspecified) | 123 µM | 108 µM | 113 µM | 93.4 µM | 115 µM | 114 µM | 123 µM | 113 µM | 110 µM | 138 µM | – | – | – | – | – | – | – | – | –
11 | Cc1ccc(S(=O)(=O)N/N=C/C(C)C)cc1 | > 100 µM | > 100 µM | > 100 µM | > 100 µM | > 100 µM | > 100 µM | > 100 µM | > 100 µM | > 100 µM | > 100 µM | – | – | – | – | – | – | – | – | –
12 | CC(=O)NC(C=O)C(O[C@H](C)C(=O)NC(C)C(=O)NC(CCC(N)=O)C(=O)OCc1ccccc1)C(O)C(O)COC(=O)CCNc1c2ccccc2nc2cccc([N+](=O)[O-])c12 (stereo partly specified) | 30 µM | 10.7 µM | 20.2 µM | 2.94 µM | 3.44 µM | 93.1 µM | 14.4 µM | 4.67 µM | 2.74 µM | – | – | – | – | – | – | – | – | – | –
13 | CC(=O)OC1=CC2(OC(C)=O)CC(C)(C)C1C1C(=O)C=CC(=O)C12 (stereo unspecified) | > 100 µM | > 100 µM | > 71 µM | > 100 µM | > 100 µM | > 100 µM | > 100 µM | 38.9 µM | > 65.7 µM | > 100 µM | – | – | – | – | – | – | – | – | –
14 | c1ccc(OCc2nnc3n2N=C(c2ccccc2)CS3)cc1 | > 100 µM | > 100 µM | > 100 µM | > 100 µM | > 100 µM | > 100 µM | > 100 µM | > 100 µM | – | > 100 µM | – | – | – | – | – | – | – | – | –
15 | Cc1ccc(NC(=O)CCc2n[nH]c(=S)o2)cc1 | > 100 µM | > 100 µM | > 100 µM | > 100 µM | > 100 µM | > 100 µM | > 100 µM | > 100 µM | > 100 µM | – | – | – | – | – | – | – | – | – | –
